ChEMBL document CHEMBL3046273, “Molecular cloning and pharmacological characterisation of a tyramine receptor from the rice stem borer, Chilo suppressalis (Walker)” (Pest Manag Sci, 2013)
Structures can show the parent of a compound that is named as a salt. Calls of active or inactive are those of the source. No cut-off for these calls is given here.

Assays:
Assay type in all cases: functional, cell-based
[1] = target: T1, TyR1 (Chilo suppressalis) (UniProt H9TVJ1); test: Agonist activity at Chilo suppressalis (rice stem borer) tyramine receptor TyR1 expressed in HEK293 cells assessed as reduction in forskolin-induced cAMP accumulation at 10 uM incubated for 20 min; design: scale not given: the % may be the effect or the level left
T1 sequence (whole entry): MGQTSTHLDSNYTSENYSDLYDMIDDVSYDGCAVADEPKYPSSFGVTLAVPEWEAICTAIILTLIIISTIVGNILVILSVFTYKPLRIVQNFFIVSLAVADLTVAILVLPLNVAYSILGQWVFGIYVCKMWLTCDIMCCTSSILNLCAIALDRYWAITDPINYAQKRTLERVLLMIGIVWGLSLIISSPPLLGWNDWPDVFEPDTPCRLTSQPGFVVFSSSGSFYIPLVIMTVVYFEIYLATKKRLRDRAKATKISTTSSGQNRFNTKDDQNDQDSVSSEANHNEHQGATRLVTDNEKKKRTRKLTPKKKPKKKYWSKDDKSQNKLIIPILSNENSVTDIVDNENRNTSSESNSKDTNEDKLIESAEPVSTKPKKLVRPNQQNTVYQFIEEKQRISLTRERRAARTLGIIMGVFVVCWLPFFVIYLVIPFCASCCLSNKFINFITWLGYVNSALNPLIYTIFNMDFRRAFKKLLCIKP

[2] = target: T1, TyR1 (Chilo suppressalis); test: (§1) Agonist activity at Chilo suppressalis (rice stem borer) tyramine receptor TyR1 expressed in HEK293 cells assessed as reduction in forskolin-induced cAMP accumulation incubated for 20 min
TyR1 = target: T2, TyR1 (Chilo suppressalis, UniProt H9TVJ1); test: as §1
T2 sequence (H9TVJ1 whole entry): T1 sequence (whole entry)

[3] = target: T1, TyR1 (Chilo suppressalis); test: Agonist activity at Chilo suppressalis (rice stem borer) tyramine receptor TyR1 expressed in HEK293 cells assessed as increase in forskolin-induced cAMP accumulation at 10 uM incubated for 20 min relative to untreated control
[4] = target: T1, TyR1 (Chilo suppressalis); test: Agonist activity at Chilo suppressalis (rice stem borer) tyramine receptor TyR1 expressed in HEK293 cells assessed as reduction in forskolin-induced cAMP accumulation at < 1 umol incubated for 20 min

| SMILES | Activity [1] | other results |
| --- | --- | --- |
| NCCc1ccc(O)cc1 [TYRAMINE HYDROCHLORIDE] | 75% | Activity [2]: Dose-dependent effect; EC50 (TyR1): 369 nM |
| c1ccc2c(CC3=NCCN3)cccc2c1 | inactive | – |
| NCC(O)c1ccc(O)cc1 (racemic) [OCTOPAMINE HYDROCHLORIDE] | 56% | Activity [2]: Dose-dependent effect; EC50 (TyR1): 978 nM |
| Cc1cc(Cl)ccc1/N=C/N(C)C | inactive | – |
| NCCc1c[nH]c2ccc(O)cc12 | inactive | Activity [3]: inactive |
| Cc1ccc(/N=C/N(C)/C=N/c2ccc(C)cc2C)c(C)c1 | Active | Activity [4]: inactive |
| NCCc1ccc(O)c(O)c1 | – | fold change (FC) [3]: 2 |
| Clc1cccc(Cl)c1NC1=NCCN1 | Active | – |
